Structures are written as SMILES. pIC50, pKd: −log10 of the molar value.

Experiment [1] addresses T1, NLRP3, NEK7, ASC (Mus musculus, UniProt Q8R4B8).
T1 construct: endogenous in cells; host or cells: J774A.1 murine macrophages (LPS- or Pam3CSK4-primed)
The experiment is described as follows: Photoaffinity labeling and pull-down with YM-I-85 in LPS-primed J774A.1 cell lysates. It is filed as binding, murine. Conditions: UV irradiation.
Protocol: LPS-primed J774A.1 cells were lysed with NP-40 lysis buffer (50 mM Tris-HCl at pH 8, 150 mM NaCl, 1.0% NP-40, supplemented with cOmplete mini protease inhibitor cocktail) and centrifuged at 20,000g for 20 min at 4 °C. The supernatant was diluted to a concentration of 1.2 mg/mL and incubated with the competing compound for 1 h on ice, followed by incubation with YM-I-85 for 1 h on ice. Samples were irradiated at 365 nm for 15 min and then incubated with Streptavidin Agarose Resin (Thermo Fisher) overnight at 4 °C. The resins were washed once with 0.1% SDS in PBS and twice with 1% NP-40 in PBS before eluting with SDS-PAGE loading buffer and boiling. Beads were spun down, and the supernatants were analyzed by immunoblotting.

The target of experiment [2] is T2, NLRP3 inflammasome (Mus musculus, UniProt Q8R4B8).
T2 construct: endogenous in cells; host or cells: J774A.1 murine macrophages (LPS- or Pam3CSK4-primed)
The experiment is described as follows: IL-1β production in J774A.1 cells upon NLRP3 inflammasome activation (ELISA). It is filed as cell-based, murine. The following applies: for pIC50: LPS/ATP activation. On the procedure: The levels of IL-1β and TNF-α in the supernatant were measured by ELISA.
A general note: An ELISA detects its analyte on a solid surface through an enzyme-linked reagent.

Experiment [3] concerns the target T3, NLRP3 (Mus musculus, UniProt Q8R4B8).
T3 construct: The recombinant full-length NLRP3 protein was expressed and purified as previously described using Expi293F cells; FLAG (N); host or cells: Expi293F
The experiment is described as follows: Photoaffinity labeling of recombinant NLRP3 with YM-I-27 and NBD-Azide click, with competition. Type of experiment: binding. On the procedure:
30 μL aliquots of recombinant NLRP3 or a mixture of J774A.1 cell lysate and NLRP3 were incubated with or without YM-I-27 at the indicated concentrations at 37 °C for 30 min. The samples were then placed on ice and irradiated at 365 nm for 15 min. Subsequently, 1 μL of NBD-Azide (5 mM) or Biotin-PEG3-Azide (5 mM) was added to the samples, followed by the addition of 1 μL of CuSO4 (50 mM), tris(benzyltriazolylmethyl)-amine (TBTA) (30 mM), and tris(2-carboxyethyl)-phosphine (TCEP) (100 mM). The CuAAC reactions were agitated at room temperature for 1 h, and proteins were precipitated with prechilled methanol and left to dry. The protein pellets were then suspended in 30 μL of 2x SDS loading buffer and heated for 10 min at 95 °C. […] The Biotin-PEG3-Azide-labeled proteins were then transferred to membranes and analyzed by Western blotting using streptavidin-HRP and NLRP3 antibodies, respectively.

Experiment [4] addresses T4, NLRP3 NACHT domain (Homo sapiens, UniProt Q96P20).
T4 construct: (K131-L679)-Avi plasmid; 8His-Strep II-ZZ-TEV site (N, cleaved yes); made in house; host or cells: Sf21 insect cells (baculovirus)
The experiment in a line: Surface plasmon resonance (SPR). It is filed as binding. Conditions: biotinylated NACHT protein; single-cycle kinetics, 1:1 model. Background: SPR reads the build-up and loss of mass on a sensor chip optically.
Protocol: Human biotinylated-NACHT domain of NLRP3 was expressed in Sf21 insect cells using the pFastBac1–8His-Strep II-ZZ-TEV-NLRP3­(K131-L679)-Avi plasmid. For protein expression, 1.6 L of insect cells were cultured with a viral stock of the second passage for 48 h at 27 °C. Cells were collected, lysed in lysis buffer (50 mM HEPES pH 7.5, 500 mM NaCl, 10% glycerol, 1 mM MgCl2, 1 mM TCEP, 100 μM ATP) and centrifuged at 16,000 rpm for 60 min. The supernatant was loaded onto a Ni Bestarose FF column and eluted with lysis buffer containing 300 mM imidazole. The sample was biotinylated in a tube containing BirA enzyme (1:100 (w/w) to protein) with biotin buffer and TEV protease (1:10 (w/w) to protein), and the reaction was incubated at 4 °C overnight. The sample was collected and eluted with a lysis buffer containing 75 mM biotin from Strep-Tactin XT columns. The biotinylated NACHT protein was further purified with HiLoad 16/600 Superdex 200 pg column with an elution buffer (50 mM HEPES pH 7.5, 500 mM NaCl, 10% glycerol, 1 mM MgCl2, 1 mM TCEP).
SPR experiments were performed on a Biacore 1K system with streptavidin sensor chip (Series S Sensor Chip SA, Cytiva) according to the reported procedure. The system was flushed with running buffer (10 mM HEPES, pH 7.4, 150 mM NaCl, 0.5 mM ADP, 0.5 mM TCEP, 2 mM MgCl2, 0.05% Tween 20, 2% DMSO). […]

Experiment [5] deals with T5, caspase-1 (Homo sapiens, UniProt P29466).
T5 sequence (P29466 120-297 limits assumed): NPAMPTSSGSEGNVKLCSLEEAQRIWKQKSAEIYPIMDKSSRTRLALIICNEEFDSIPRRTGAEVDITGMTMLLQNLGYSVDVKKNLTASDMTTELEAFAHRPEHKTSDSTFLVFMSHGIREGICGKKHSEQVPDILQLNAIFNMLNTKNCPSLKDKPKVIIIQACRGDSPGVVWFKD
T5 sequence (P29466 317-404 limits assumed): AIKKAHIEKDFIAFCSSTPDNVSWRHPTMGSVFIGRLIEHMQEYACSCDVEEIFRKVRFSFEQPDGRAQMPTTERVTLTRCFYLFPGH
The experiment is described as follows: In vitro caspase-1 cleavage assay (recombinant YTHDF2 substrate). Conditions: recombinant caspase-1; YQ128 1, 3 and 10 μM.
Protocol: The reactions were then terminated by boiling in 2× SDS sample buffer, and the samples were analyzed by Western blotting.

The subject of experiment [6] is full-length NLRP3, PYD-NACHT fragment, PYD fragment. The experiment in a line: Drug affinity responsive target stability (DARTS). Conditions: YQ128 50 μM; 50–200 ng Pronase per μg protein. It is filed as binding, human. As to the method: Then, 0.1 mg/mL Pronase (Sigma-Aldrich) was added at the protease to protein ratio, between 50 and 200 ng Pronase per μg of protein for 7.5–30 min at room temperature. The reaction was stopped by the addition of a 20x protease inhibitor cocktail and incubated on ice for 10 min. Protein samples were analyzed by immunoblotting.

Experiment [7] deals with NLRP3 and pro-IL-1β expression. The experiment is described as follows: Western blot of LPS-induced NLRP3 and pro-IL-1β (priming stage) in J774A.1 cells. Type of experiment: cell-based, murine. The following applies: YQ128 10 μM, curcumin 150 μM, MCC950 1 μM, LPS 1 μg/mL.
Experiment [8] relates to TNF-α. The experiment in a line: TNF-α production in J774A.1 cells under LPS/nigericin (ELISA). Type of experiment: cell-based, murine.
For experiment [9], the system named is caspase-1 and GSDMD cleavage. The experiment in a line: Western blot of cleavage of caspase-1 and GSDMD in J774A.1 cells. Type of experiment: cell-based, murine. The following applies: LPS 10 μg/mL/nigericin 10 μM. A general note: In western blotting, separated proteins are transferred to a membrane and probed.
Protocol: J774A.1 cells were seeded into a 24-well plate at 0.6 × 10^6 cells/well and allowed to attach overnight at 37 °C. For the priming, cells were treated with compounds for 1 h, followed by 1 μg/mL LPS treatment for 4.5 h. Cells were lysed in RIPA buffer, and cell lysates were analyzed by immunoblotting. For the activation, cells were treated with 10 μg/mL LPS for 4.5 h. Compounds were added during the last hour of LPS treatment. Then, cells were treated with 10 μM nigericin for 1 h. Cells were lysed in RIPA buffer, and cell lysates were analyzed by immunoblotting.
Protein samples were prepared with 4x Laemmli sample buffer (Bio-Rad) supplemented with β-mercaptoethanol, followed by boiling for 5–10 min. Samples were then resolved by SDS-PAGE and dry-transferred to poly­(vinyl difluoride) (PVDF) membranes using a Trans-Blot Turbo transfer system (Bio-Rad). Membranes were blocked in 5% (w/v) dried milk or BSA in TBS (Bio-Rad) supplemented with 0.1% (v/v) Tween-20 (TBS-T) for 1 h at room temperature or overnight at 4 °C. Membranes were then incubated with primary antibody, followed by a horseradish peroxidase (HRP)-conjugated secondary antibody, each diluted in 5% (w/v) dried milk or BSA in TBS-T for 1–2 h at room temperature or overnight at 4 °C. Membranes were developed with Clarity Western ECL substrate (Bio-Rad) and visualized for chemiluminescence using an Amersham Imager 680. […]
The target of experiment [10] is T6, recombinant human NLRP3 protein (Homo sapiens, UniProt Q96P20).
T6 construct: The recombinant full-length NLRP3 protein was expressed and purified as previously described using Expi293F cells; 10His (N); 6His (C); made in house; host or cells: Expi293F
T6 sequence (Q96P20 whole entry): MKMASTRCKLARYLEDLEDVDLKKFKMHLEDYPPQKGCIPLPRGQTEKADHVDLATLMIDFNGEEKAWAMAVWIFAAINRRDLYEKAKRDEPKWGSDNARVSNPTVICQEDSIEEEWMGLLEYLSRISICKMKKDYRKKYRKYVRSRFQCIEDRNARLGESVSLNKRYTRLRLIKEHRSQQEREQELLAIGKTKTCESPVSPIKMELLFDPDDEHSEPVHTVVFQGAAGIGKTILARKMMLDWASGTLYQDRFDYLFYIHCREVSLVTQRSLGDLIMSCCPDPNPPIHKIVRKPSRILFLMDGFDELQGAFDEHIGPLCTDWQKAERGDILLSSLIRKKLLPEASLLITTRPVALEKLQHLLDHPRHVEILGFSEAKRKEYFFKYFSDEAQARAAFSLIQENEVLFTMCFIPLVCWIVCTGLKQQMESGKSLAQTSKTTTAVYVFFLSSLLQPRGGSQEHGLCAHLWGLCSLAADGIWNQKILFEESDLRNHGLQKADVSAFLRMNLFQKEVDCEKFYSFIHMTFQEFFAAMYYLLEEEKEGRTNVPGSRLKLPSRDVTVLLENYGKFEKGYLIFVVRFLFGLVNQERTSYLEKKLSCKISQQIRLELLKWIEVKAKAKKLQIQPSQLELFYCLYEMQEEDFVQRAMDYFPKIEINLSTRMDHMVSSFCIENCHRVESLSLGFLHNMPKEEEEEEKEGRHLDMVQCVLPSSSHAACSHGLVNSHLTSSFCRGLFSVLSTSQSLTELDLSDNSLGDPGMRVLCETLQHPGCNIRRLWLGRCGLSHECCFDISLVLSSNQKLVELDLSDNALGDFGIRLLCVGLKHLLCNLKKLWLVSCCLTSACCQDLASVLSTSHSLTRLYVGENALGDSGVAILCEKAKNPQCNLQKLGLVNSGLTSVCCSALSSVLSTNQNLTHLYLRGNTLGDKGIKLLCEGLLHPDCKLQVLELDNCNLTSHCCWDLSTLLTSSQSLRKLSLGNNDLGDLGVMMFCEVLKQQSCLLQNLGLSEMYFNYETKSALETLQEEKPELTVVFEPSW
The experiment in a line: Microscale thermophoresis (MST). Type of experiment: binding. The following applies: n = 3. On the procedure: The binding affinity was measured with a Monolith NT.Automated instrument as described previously. Recombinant human NLRP3 protein (500 nM) was labeled with 50 nM RED-tris-NTA dye (NanoTemper Technologies, MO-L018). […] The samples were loaded into NanoTemper glass capillaries, and thermophoresis curves were analyzed using the instrument.

The test system of experiment [11] is ASC specks. The experiment in a line: ASC speck formation by immunofluorescence in J774A.1 cells. It is filed as cell-based, murine. The following applies: LPS/nigericin, YQ128 10 and 20 μM.
Protocol: J774A.1 cells were seeded onto poly-D-lysine-coated glass coverslips in a 12-well plate (1 × 10^6 cells/well) and cultured in their respective growth medium, allowing them to attach overnight at 37 °C. For ASC speck formation, cells were treated with 1 μg/mL LPS for 4.5 h with different doses of compound treatments during the last hour, followed by treatment with 10 μM nigericin for 1.5 h. Cells were fixed with 4% paraformaldehyde, permeabilized with 0.1% Triton X-100 in PBS, and then blocked with 1% BSA and 0.1% Tween-20 in PBS. […] Nuclei were stained with DAPI (2 μg/mL), and coverslips were mounted onto slides using Epredia Immuno-Mount (Fisher Scientific). Images were acquired using a Zeiss LSM700 confocal microscope (Zeiss).
Experiment [12] concerns mitochondrial ROS. The experiment in a line: Mitochondrial ROS and integrity (MitoSOX/MitoTracker) in J774A.1 cells. The following applies: LPS/nigericin, YQ128 10 μM. Type of experiment: cell-based, murine. As to the method:
J774A.1 cells (5 × 10^5 cells/mL) were plated in 12-well plates precoated with poly-L-lysine overnight. […] The supernatants were discarded, and the cells were washed with ice-cold PBS three times and fixed with 4% PFA in PBS for 15 min. DAPI (5 μg/mL) was used for nuclear staining. After that, the cells were washed with PBS three times, and fluorescence microscopy analyses were carried out using an Olympus IX73.
Figure S2. J774A.1 were primed with LPS (1 μg/mL) for 4.5 h and treated with or […]
h. Cells were stained with MitoSOX and MitoTracker red. Nuclei were stained with […]
Figure S3. YQ128 (A&B) and MCC950 (C&D) dose-dependently block the recognition of NLRP3 by D4D8T antibody. […]

The target in experiment [13] is T3, NLRP3. The experiment in a line: In situ proteome click labeling in J774A.1 cell lysate spiked with NLRP3. It is filed as binding, murine. The following applies: YM-I-27 3 and 10 μM; Biotin-PEG3-Azide click; J774A.1 lysate:NLRP3 20:1. On the procedure:
30 μL aliquots of recombinant NLRP3 or a mixture of J774A.1 cell lysate and NLRP3 were incubated with or without YM-I-27 at the indicated concentrations at 37 °C for 30 min. The samples were then placed on ice and irradiated at 365 nm for 15 min. Subsequently, 1 μL of NBD-Azide (5 mM) or Biotin-PEG3-Azide (5 mM) was added to the samples, followed by the addition of 1 μL of CuSO4 (50 mM), tris(benzyltriazolylmethyl)-amine (TBTA) (30 mM), and tris(2-carboxyethyl)-phosphine (TCEP) (100 mM). The CuAAC reactions were agitated at room temperature for 1 h, and proteins were precipitated with prechilled methanol and left to dry. The protein pellets were then suspended in 30 μL of 2x SDS loading buffer and heated for 10 min at 95 °C. The SDS-PAGE gels of NBD-Azide-labeled proteins were then washed with washing buffer (10% acetic acid, 40% methanol in water) for 2 h and imaged using ChemiDoc MP Imaging System (Bio-Rad) with Alexa Fluor 488 (λex = 490 nm, λem = 525 nm). The Biotin-PEG3-Azide-labeled proteins were then transferred to membranes and analyzed by Western blotting using streptavidin-HRP and NLRP3 antibodies, respectively.

For experiment [14], the target named is T7, endogenous NLRP3 (Mus musculus, UniProt Q8R4B8).
T7 construct: endogenous in cells; host or cells: J774A.1 murine macrophages (LPS- or Pam3CSK4-primed)
The experiment is described as follows: Immunocytochemistry FRET assay in J774A.1 cells. It is filed as cell-based, murine. Conditions: LPS-treated J774A.1 cells; TAMRA acceptor clicked to probe. On the procedure:
J774A.1 cells were treated with 1 μg/mL LPS for 4.5 h, and the photoactive probe (YM-I-27) was added and incubated for 30 min. Cells were irradiated at 365 nm for 30 min on ice and were fixed and permeabilized following the Immunofluorescence Microscopy procedures. The click reaction was performed in PBS containing TAMRA-N3 (30 μM), CuSO4 (800 μM), TBTA (500 μM), and TCEP (500 μM) at room temperature in the dark for 2.5 h. Cells were thoroughly washed with PBS and blocked by following the above procedures. Cells were then treated with anti-NLRP3 (cryo-2, 1:200) for 1.5 h, followed by Alexa Fluor 488-conjugated antimouse secondary antibody (Thermo Fisher, 4 μg/mL). Coverslips were mounted to slides, and data were acquired using a Zeiss LSM710 confocal microscope (Zeiss) and a 440 nm pulsed laser. The difference in the fluorescence lifetime was calculated by subtracting the median lifetime of Alexa Fluor 488 (donor) in the absence and presence of the YM-I-27 probe clicked with TAMRA (acceptor).

T3 sequence (Q8R4B8 whole entry): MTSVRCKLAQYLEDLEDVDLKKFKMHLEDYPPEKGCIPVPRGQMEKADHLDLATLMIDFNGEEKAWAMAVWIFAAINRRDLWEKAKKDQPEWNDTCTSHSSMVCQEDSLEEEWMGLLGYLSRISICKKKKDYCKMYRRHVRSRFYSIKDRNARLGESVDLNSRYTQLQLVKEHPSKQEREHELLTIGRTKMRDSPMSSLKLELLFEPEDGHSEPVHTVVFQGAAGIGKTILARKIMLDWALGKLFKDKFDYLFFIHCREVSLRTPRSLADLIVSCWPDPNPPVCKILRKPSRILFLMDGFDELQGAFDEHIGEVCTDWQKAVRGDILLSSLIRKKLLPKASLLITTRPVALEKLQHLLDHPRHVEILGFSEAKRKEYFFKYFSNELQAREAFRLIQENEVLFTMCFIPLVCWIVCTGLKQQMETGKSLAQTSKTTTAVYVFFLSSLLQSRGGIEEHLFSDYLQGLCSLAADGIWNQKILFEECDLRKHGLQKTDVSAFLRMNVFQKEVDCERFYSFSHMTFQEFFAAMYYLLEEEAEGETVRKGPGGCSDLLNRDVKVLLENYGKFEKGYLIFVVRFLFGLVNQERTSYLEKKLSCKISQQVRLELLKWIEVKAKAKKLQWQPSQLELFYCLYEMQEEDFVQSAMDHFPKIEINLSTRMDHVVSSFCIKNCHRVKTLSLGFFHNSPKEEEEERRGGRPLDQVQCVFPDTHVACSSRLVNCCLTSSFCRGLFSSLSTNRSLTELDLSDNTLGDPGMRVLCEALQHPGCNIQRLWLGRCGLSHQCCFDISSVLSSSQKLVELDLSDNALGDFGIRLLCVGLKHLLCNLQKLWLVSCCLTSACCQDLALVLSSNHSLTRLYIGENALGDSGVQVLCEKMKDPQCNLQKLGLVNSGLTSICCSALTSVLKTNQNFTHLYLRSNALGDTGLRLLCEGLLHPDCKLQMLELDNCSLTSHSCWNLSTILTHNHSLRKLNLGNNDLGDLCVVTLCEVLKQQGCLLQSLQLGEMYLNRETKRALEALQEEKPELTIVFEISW
T4 sequence (Q96P20 131-679): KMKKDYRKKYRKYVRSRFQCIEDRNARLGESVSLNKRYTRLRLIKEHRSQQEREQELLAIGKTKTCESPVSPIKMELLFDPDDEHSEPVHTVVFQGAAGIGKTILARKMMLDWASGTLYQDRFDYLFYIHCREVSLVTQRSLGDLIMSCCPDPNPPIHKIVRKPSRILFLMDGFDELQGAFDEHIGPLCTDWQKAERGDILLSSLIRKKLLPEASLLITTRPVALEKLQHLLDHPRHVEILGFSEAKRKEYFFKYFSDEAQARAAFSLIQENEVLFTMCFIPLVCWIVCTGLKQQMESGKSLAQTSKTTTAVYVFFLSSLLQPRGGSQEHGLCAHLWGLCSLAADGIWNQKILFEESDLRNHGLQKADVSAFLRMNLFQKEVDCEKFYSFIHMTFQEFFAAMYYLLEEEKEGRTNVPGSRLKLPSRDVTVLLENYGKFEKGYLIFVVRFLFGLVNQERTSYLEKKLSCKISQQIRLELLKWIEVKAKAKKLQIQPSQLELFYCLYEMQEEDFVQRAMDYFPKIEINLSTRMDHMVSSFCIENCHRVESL

One may read the pIC50 as the negative decadic logarithm of the IC50, by convention in mol/L. Consider `C#CCNS(=O)(=O)c1ccc(CCN(Cc2cc(Cl)ccc2OCCC2(CCc3cn(CCOCCOCCNC(=O)CCCCC4SCC5NC(=O)NC54)nn3)N=N2)C(=O)Cc2ccsc2)cc1` (centres unmarked) [YM-I-85], for which the “photoaffinity labeling of proteins by probe (pull-down, Western blot)” value in [1] was “efficiently labeled NLRP3 and NEK7 in a dose-dependent manner but not ASC”. This molecule showed a pIC50 in [2] of 5.62. For the same molecule, the “potency relative to YQ128 (fold less)” value in experiment [2] (LPS/ATP, IL-1β) is ~8 fold.

Regarding `O=C(O)c1ccc(/C=C2/SC(=S)N(Cc3cccc(C(F)(F)F)c3)C2=O)cc1` [CY-09, reference compound], the “competition of YM-I-27 labeling of NLRP3” value in [3] (recombinant NLRP3 preincubated with competitor) is on record as “completely blocked the interaction”.

By pKd is commonly meant the Kd on a negative log10 scale, so that one unit is a factor of ten. In the case of `C#CCNS(=O)(=O)c1ccc(CCN(Cc2cc(Cl)ccc2OCCC)C(=O)Cc2ccsc2)cc1` [YQ128], the pKd is 6.78 in experiment [4] and 6.93 in experiment [10]. In [5], the “catalytic activity of caspase-1” value is “does not interfere with the catalytic activity of caspase-1”. The “Pronase digestion pattern (DARTS)” value in [6] was “the digestion pattern of the full-length NLRP3 and the PYD-NACHT fragment, but not the PYD fragment, by Pronase was altered”. The “levels of LPS-induced pro-IL-1β and NLRP3” value in [7] is recorded as “neither YQ128 nor MCC950 changed the levels”. In addition, the “production of TNF-α” value in experiment [8] is “No inhibition”. Also, in experiment [9], the “cleavage of caspase-1 and GSDMD” value was “inhibitory effect”. Besides, the “formation of ASC specks” value in [11] is listed as “significantly suppressed the formation of ASC specks”. For the same molecule, the “production of mitochondrial ROS and integrity” value in experiment [12] is “no significant effect”.

For the molecule `C#CCCC1(CCOc2ccc(Cl)cc2CN(CCc2ccc(S(=O)(=O)NCC#C)cc2)C(=O)Cc2ccsc2)N=N1` [YM-I-27], the pIC50 in experiment [2] is 6.30. Further, the “in situ proteome labeling” value in experiment [13] was “successfully and efficiently recognized NLRP3 along with four other proteins”. Further, the “decrease of emission lifetime of Alexa Fluor 488 (FRET donor)” value in experiment [14] is reported as ~44 ps. The “labeling of recombinant NLRP3 protein by probe” value in [3] (UV cross-linking, NBD-N3 click, fluorescent visualization) is reported as “dose-dependently labeled the NLRP3 protein”.

The values above are taken from paper PMC12670425, “Mechanistic Characterization of a Small Molecule as a Direct NLRP3 Inhibitor via Binding to the NACHT Domain” (Journal of Medicinal Chemistry, 2025).
